Test results reported in patent US20250296938A1, “Compounds that Interact with the Ras Superfamily for the Treatment of Cancers, Inflammatory Diseases, Rasopathies, and Fibrotic Disease” (SHY Therapeutics, LLC, priority 2018, published 2025).
Like-named read-outs stand apart in the source and are kept apart here. One block for each molecule: values may come before it.

What was measured:
Assay in all cases: Ras GTP binding domain inhibition assay (Cy3-GTP/Cy5-GTP competition)
KRas wild type = test system: KRas wild type; parameters: species or system human; conditions: 20 μM; for KRas wild type: % inh.: without SOS; for KRas wild type % inh.: without SOS (Table 7A)
Procedure: (§1) The following method was developed as specific assay for the following proteins: KRas wild type, KRas Q61H mutant, KRas G12C mutant, KRas G12D mutant, HRas wild type, Rac-1, and Rho-A.
(§2) • 25 mM Tris-HCl, pH 7.4 • 27 mM KCl • 137 mM NaCl • 1 mM MgCl2 • 1 mM DTT
(§3) • 50 mM Tris-HCl, pH 7.0 • 1 mM MgCl2 • 1 mM DTT
(§4) The small GTPases proteins: KRas wild type. KRas Q61H mutant, KRas G12C mutant, KRas G12D mutants, HRas wild type, Rac-1, and Rho-A were expressed as His-tagged proteins. In addition, the Guanosine nucleotide Exchange Factor (GEF) Sos protein (residues 556-1049) was expressed as a His-tagged protein. In cells, the guanine nucleotide exchange factor Sos protein promotes activation of Ras proteins by stimulating an exchange of GDP for GTP. The inclusion of Sos to the Ras GTP binding domain inhibition assay may be considered as an alternative representation of physiological cellular conditions for evaluating the inhibitory activity of some of the tested small molecules.
(§5) For the assay, all purified small GTPases proteins were diluted in Buffer-I or Buffer-II to a final concentration of 10-30 μg/mL. 200 μL of each diluted protein was added to a nickel-coated 96-well plate and incubated overnight at 4° C. Then the protein solution was discarded and 200 μL of Buffer-I or Buffer-II was added to each well in the presence of 1% DMSO. Compounds to be tested were added to the protein-coated wells at final concentration of 20 μM, and incubated for 3 hours at room temperature with and without […] of Sos added to the final hour of the incubation. When performing IC50 measurements a serial dilution of all tested concentrations was added. Then Cy3-GTP or Cy5-GTP was added to each well to a final concentration of 100 nM. The labeled GTP was incubated for 45 minutes at room temperature. Following GTP incubation, wells were washed 3× in Buffer-I or Buffer-II and 200 μL of Buffer-I or Buffer-II was added to each well. Following washes, the amount of bound labeled-GTP was measured using a SpectraMax M3 (Molecular Devices).

KRas G12C mutant = test system: KRas G12C mutant; parameters: species or system human; conditions: 20 μM
Procedure: as §1, §2, §3, §4, §5

KRas Q61H mutant = test system: KRas Q61H mutant; parameters: species or system human; conditions: 20 μM
Procedure: as §1, §2, §3, §4, §5

KRas G12D mutant = target: T1, KRas G12D mutant (Homo sapiens, UniProt P01116, G12D); conditions: for IC50: cell-free, 100 nM Cy3-GTP or Cy5-GTP
T1 construct: fused on or other part: His tag, used for capture on nickel-coated plates
Procedure: as §1, §2, §3, §4, §5

[1] = 20 μM, with SOS, read-out: KRas G-12D mutant + SOS: % inh.
[2] = 20 μM, without SOS, read-out: KRas G12D mutant: % inh.
[3] = 20 μM, with SOS (Table 7A), read-out: KRas G12D mutant + SOS: % inh.
[4] = 20 μM, without SOS (Table 7A), read-out: KRas G12D mutant: % inh.
[5] = at 20 μM, with SOS, read-out: KRas G12D mutant + SOS: % inh.
[6] = at 20 μM, without SOS, read-out: KRas G12D mutant: % inh.

SMILES: COc1cccc(Oc2nc(-c3ccccn3)nc(O)c2OC)c1 [drawing 801]
KRas wild type + SOS: % inh. (KRas wild type; with SOS): C (51-75% inhibition)
KRas wild type: % inh. (KRas wild type): D (76-100% inhibition)
KRas G12C mutant + SOS: % inh. (KRas G12C mutant; with SOS): C (51-75% inhibition)
KRas G12C mutant: % inh. (KRas G12C mutant; without SOS): C (51-75% inhibition)
KRas Q61H mutant + SOS: % inh. (KRas Q61H mutant; with SOS): C (51-75% inhibition)
KRas Q61H mutant: % inh. (KRas Q61H mutant; without SOS): D (76-100% inhibition)
inhibition at 20 µM (KRas G12D mutant; [1]): 51 to 75%
inhibition at 20 µM (KRas G12D mutant; [2]): 76 to 100%

SMILES: CO[C@H]1C[C@@H](Nc2nc(-c3nccn3C)nc3sccc23)C1 [drawing 903]
KRas wild type + SOS: % inh. (KRas wild type; with SOS (Table 7A)): D (76-100% inhibition)
KRas wild type % inh. (KRas wild type): C (51-75% inhibition)
KRas G12C mutant + SOS: % inh. (KRas G12C mutant; with SOS (Table 7A)): D (76-100% inhibition)
KRas G12C mutant: % inh. (KRas G12C mutant; without SOS (Table 7A)): D (76-100% inhibition)
KRas Q61H mutant + SOS: % inh. (KRas Q61H mutant; with SOS (Table 7A)): D (76-100% inhibition)
KRas Q61H mutant: % inh. (KRas Q61H mutant; without SOS (Table 7A)): D (76-100% inhibition)
inhibition at 20 µM (KRas G12D mutant; [3]): 76 to 100%
inhibition at 20 µM (KRas G12D mutant; [4]): 76 to 100%

SMILES: Cn1ccnc1-c1nc(O)c2scc(-c3ccccn3)c2n1 [drawing 853]
KRas wild type + SOS: % inh. (KRas wild type; with SOS): C (51-75% inhibition)
KRas wild type: % inh. (KRas wild type): D (76-100% inhibition)
KRas G12C mutant + SOS: % inh. (KRas G12C mutant; with SOS): C (51-75% inhibition)
KRas G12C mutant: % inh. (KRas G12C mutant; without SOS): D (76-100% inhibition)
KRas Q61H mutant + SOS: % inh. (KRas Q61H mutant; with SOS): C (51-75% inhibition)
KRas Q61H mutant: % inh. (KRas Q61H mutant; without SOS): D (76-100% inhibition)
inhibition at 20 µM (KRas G12D mutant; [1]): 51 to 75%
inhibition at 20 µM (KRas G12D mutant; [2]): 76 to 100%

SMILES: CO[C@H]1CC[C@@H](Nc2nc(-c3nc(C)cn3C)nc3sc(-c4cccc5[nH]ncc45)c(C)c23)C1 [drawing 1032]
inhibition at 20 µM (KRas G12D mutant; [5]): 26 to 50%
inhibition at 20 µM (KRas G12D mutant; [6]): 26 to 50%

SMILES: CC(C)COc1ccc(-c2csc3c(O)nc(-c4nccn4Cc4ccccn4)nc23)cn1 [drawing 899]
KRas wild type + SOS: % inh. (KRas wild type; with SOS (Table 7A)): C (51-75% inhibition)
KRas wild type % inh. (KRas wild type): D (76-100% inhibition)
KRas G12C mutant + SOS: % inh. (KRas G12C mutant; with SOS (Table 7A)): C (51-75% inhibition)
KRas G12C mutant: % inh. (KRas G12C mutant; without SOS (Table 7A)): C (51-75% inhibition)
KRas Q61H mutant + SOS: % inh. (KRas Q61H mutant; with SOS (Table 7A)): D (76-100% inhibition)
KRas Q61H mutant: % inh. (KRas Q61H mutant; without SOS (Table 7A)): C (51-75% inhibition)
inhibition at 20 µM (KRas G12D mutant; [3]): 51 to 75%
inhibition at 20 µM (KRas G12D mutant; [4]): 76 to 100%

SMILES: CO[C@H]1CC[C@@H](Nc2nc(-c3nccn3C)nc3sc(-c4ccn(C(C)C)n4)c(C)c23)C1 [drawing 1067]
IC50 (KRas G12D mutant): 5 to 10 µM

The next lines start with the values.

KRas wild type + SOS: % inh. (KRas wild type; with SOS): D (76-100% inhibition)
KRas wild type: % inh. (KRas wild type): C (51-75% inhibition)
KRas G12C mutant + SOS: % inh. (KRas G12C mutant; with SOS): D (76-100% inhibition)
KRas G12C mutant: % inh. (KRas G12C mutant; without SOS): A (1-25% inhibition)
KRas Q61H mutant + SOS: % inh. (KRas Q61H mutant; with SOS): D (76-100% inhibition)
KRas Q61H mutant: % inh. (KRas Q61H mutant; without SOS): C (51-75% inhibition)
inhibition at 20 µM (KRas G12D mutant; [1]): 51 to 75%
inhibition at 20 µM (KRas G12D mutant; [2]): 51 to 75%
SMILES: COc1ccc(-c2c(-c3cccc(OC)c3F)sc3nc(-c4nccn4C)nc(N4CCC(OC)C4)c23)cc1 (stereo not drawn) [drawing 806]

KRas wild type + SOS: % inh. (KRas wild type; with SOS (Table 7A)): D (76-100% inhibition)
KRas wild type % inh. (KRas wild type): C (51-75% inhibition)
KRas Q61H mutant + SOS: % inh. (KRas Q61H mutant; with SOS (Table 7A)): D (76-100% inhibition)
KRas Q61H mutant: % inh. (KRas Q61H mutant; without SOS (Table 7A)): C (51-75% inhibition)
inhibition at 20 µM (KRas G12D mutant; [3]): 51 to 75%
inhibition at 20 µM (KRas G12D mutant; [4]): 51 to 75%
SMILES: CO[C@H]1CC[C@@H](Nc2nc(-c3nccn3C)nc3sc(-c4cccc5[nH]ncc45)c(-c4ccccc4)c23)C1 [drawing 889]

IC50 (KRas G12D mutant): 5 to 10 µM
SMILES: CO[C@H]1C[C@@H](Nc2nc(-c3nccn3C)nc3sc(C(=O)NC(C)C)c(-c4ccccc4)c23)C1 [drawing 1068]

inhibition at 20 µM (KRas G12D mutant; [5]): 51 to 75%
inhibition at 20 µM (KRas G12D mutant; [6]): 51 to 75%
SMILES: CO[C@H]1CC[C@@H](Nc2nc(-c3nccn3C)nc3sc(-c4cccc5[nH]ncc45)c(-c4ccccc4)c23)C1 [drawing 1024]

IC50 (KRas G12D mutant): 5 to 10 µM
SMILES: CO[C@H]1C[C@@H](Nc2nc(-c3nccn3C)nc3sc(C(=O)N4CCOCC4)c(-c4ccccc4)c23)C1 [drawing 1070]

IC50 (KRas G12D mutant): 5 to 10 µM
SMILES: COC1CCN(C(=O)c2sc3nc(-c4nccn4C)nc(N[C@H]4C[C@@H](OC)C4)c3c2C2=CC=CCC=C2)C1 (stereo partly drawn)

IC50 (KRas G12D mutant): 5 to 10 µM
SMILES: CO[C@H]1CC[C@@H](Nc2nc(-c3nccn3C)nc3sc(C(=O)N4CCOCC4)c(-c4ccccc4)c23)C1 [drawing 1075]

inhibition at 20 µM (KRas G12D mutant; [5]): 51 to 75%
inhibition at 20 µM (KRas G12D mutant; [6]): 51 to 75%
SMILES: COc1cccc(-c2sc3nc(-c4nccn4C)nc(N[C@@H]4CC[C@H](OC)C4)c3c2C)c1F [drawing 1029]

KRas wild type + SOS: % inh. (KRas wild type; with SOS (Table 7A)): B (26-50% inhibition)
KRas wild type % inh. (KRas wild type): B (26-50% inhibition)
KRas Q61H mutant + SOS: % inh. (KRas Q61H mutant; with SOS (Table 7A)): B (26-50% inhibition)
KRas Q61H mutant: % inh. (KRas Q61H mutant; without SOS (Table 7A)): B (26-50% inhibition)
inhibition at 20 µM (KRas G12D mutant; [3]): 26 to 50%
inhibition at 20 µM (KRas G12D mutant; [4]): 26 to 50%
SMILES: CO[C@H]1CC[C@@H](Nc2nc(-c3nc(C)cn3C)nc3sc(-c4cccc5[nH]ncc45)c(C)c23)C1 [drawing 897]
